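How tested: cells in 96-well plates exposed to compound for 48 hours at five concentrations. The concentration for 50% growth inhibition is given as GI50.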 The source made the active and inactive calls. Rule as the data show it: active = GI50 up to about 1.1 µM and inactive = higher.
Tests used:
Test in all cases: NCI anticancer screen, dose series, 48 h
SNB-19 = tested on: SNB-19
NCI-H522 = tested on: NCI-H522
RXF 393 = tested on: RXF 393
T47D = tested on: T47D
Hs-578T = tested on: Hs-578T
HOP-92 = tested on: HOP-92
MDA-MB-435 = tested on: MDA-MB-435
HL-60 = tested on: HL-60
HCC 2998 = tested on: HCC 2998
OVCAR-5 = tested on: OVCAR-5
HT-29 = tested on: HT-29
UO-31 = tested on: UO-31
NCI/ADR-RES = tested on: NCI/ADR-RES
SNB-75 = tested on: SNB-75
SR = tested on: SR
SK-MEL-2 = tested on: SK-MEL-2
SF-295 = tested on: SF-295
SK-MEL-5 = tested on: SK-MEL-5
SF-268 = tested on: SF-268
MCF7 = tested on: MCF7

Structure (SMILES) | GI50 (SNB-19) | GI50 (NCI-H522) | GI50 (RXF 393) | GI50 (T47D) | GI50 (Hs-578T) | GI50 (HOP-92) | GI50 (MDA-MB-435) | GI50 (HL-60) | GI50 (HCC 2998) | GI50 (OVCAR-5) | GI50 (HT-29) | GI50 (UO-31) | GI50 (NCI/ADR-RES) | GI50 (SNB-75) | GI50 (SR) | GI50 (SK-MEL-2) | GI50 (SF-295) | GI50 (SK-MEL-5) | GI50 (SF-268) | GI50 (MCF7)
C=CCN1C[C@H](C)N([C@@H](c2ccc(C(=O)N3CCCCC3)cc2)c2cccc(OC)c2)C[C@H]1C | 50.5 µM (inactive) | 21.7 µM (inactive) | 48 µM (inactive) | 24.5 µM (inactive) | 86.7 µM (inactive) | 98.6 µM (inactive) | 35 µM (inactive) | 1.35 µM (inactive) | 31.6 µM (inactive) | 58.1 µM (inactive) | 24.7 µM (inactive) | 24.4 µM (inactive) | 32.4 µM (inactive) | 40 µM (inactive) | 16.1 µM (inactive) | 22.2 µM (inactive) | 45.2 µM (inactive) | 19.1 µM (inactive) | 52.7 µM (inactive) | 30.1 µM (inactive)
CCOC(=O)c1cn2c(n1)sc1c(Cl)c(Cl)ccc12 | 25.3 µM (inactive) | 4.11 µM (inactive) | 23.8 µM (inactive) | 0.91 µM (active) | 5.33 µM (inactive) | 24.5 µM (inactive) | 3.31 µM (inactive) | – | 30.7 µM (inactive) | 30.2 µM (inactive) | 12 µM (inactive) | 13.4 µM (inactive) | 8.38 µM (inactive) | 15 µM (inactive) | 2.55 µM (inactive) | 27.4 µM (inactive) | 22.9 µM (inactive) | 6.7 µM (inactive) | 16.9 µM (inactive) | 11.1 µM (inactive)
O=C1CCC(C(=O)O)C2=C1CCCC2 (stereo unspecified) | > 36.2 µM (inactive) | > 100 µM (inactive) | > 100 µM (inactive) | > 100 µM (inactive) | > 100 µM (inactive) | > 100 µM (inactive) | > 100 µM (inactive) | > 100 µM (inactive) | > 100 µM (inactive) | > 21.5 µM (inactive) | > 100 µM (inactive) | – | > 100 µM (inactive) | > 100 µM (inactive) | > 100 µM (inactive) | > 100 µM (inactive) | > 36.1 µM (inactive) | > 56.1 µM (inactive) | > 100 µM (inactive) | 51.6 µM (inactive)
COc1cccc2c(=O)oc(-c3ccccc3C)nc12 | – | 46.9 µM (inactive) | 30 µM (inactive) | > 100 µM (inactive) | 43.5 µM (inactive) | > 100 µM (inactive) | 33.6 µM (inactive) | 32 µM (inactive) | 35 µM (inactive) | 61.4 µM (inactive) | 39 µM (inactive) | 58.3 µM (inactive) | 29.2 µM (inactive) | > 100 µM (inactive) | 49.4 µM (inactive) | 26.6 µM (inactive) | 42.6 µM (inactive) | 23 µM (inactive) | 43.3 µM (inactive) | 33.7 µM (inactive)
c1ccc(CCCCNCc2cc(CNCCCCc3ccccc3)cc(CNCCCCc3ccccc3)c2)cc1 | 0.714 µM (active) | 0.667 µM (active) | 1.31 µM (inactive) | 1.79 µM (inactive) | 1.5 µM (inactive) | 1.45 µM (inactive) | 1.21 µM (inactive) | 0.226 µM (active) | 0.149 µM (active) | 1.7 µM (inactive) | 1.02 µM (active) | 0.261 µM (active) | 0.76 µM (active) | 1.66 µM (inactive) | 0.216 µM (active) | 1.82 µM (inactive) | 1.81 µM (inactive) | 1.81 µM (inactive) | 1.53 µM (inactive) | 0.178 µM (active)
O=C(/C=C/c1cccc(Br)c1)N1CCN(CCOC(c2ccccc2)c2ccccc2)CC1 | > 100 µM (inactive) | 29.1 µM (inactive) | 35.7 µM (inactive) | 23.6 µM (inactive) | > 100 µM (inactive) | 23 µM (inactive) | 38.7 µM (inactive) | 17.4 µM (inactive) | 46.6 µM (inactive) | > 100 µM (inactive) | 21.6 µM (inactive) | 25.4 µM (inactive) | 35.6 µM (inactive) | 26.2 µM (inactive) | 16.1 µM (inactive) | 43.6 µM (inactive) | 53.7 µM (inactive) | 16 µM (inactive) | > 100 µM (inactive) | 35 µM (inactive)
CC(CC=O)Nc1nn2c(=O)c3ccccc3nc2s1 (stereo unspecified) | > 100 µM (inactive) | > 100 µM (inactive) | > 100 µM (inactive) | > 100 µM (inactive) | > 100 µM (inactive) | > 100 µM (inactive) | > 100 µM (inactive) | – | > 100 µM (inactive) | > 100 µM (inactive) | > 100 µM (inactive) | 18.2 µM (inactive) | > 100 µM (inactive) | > 100 µM (inactive) | > 100 µM (inactive) | > 100 µM (inactive) | > 100 µM (inactive) | > 100 µM (inactive) | > 100 µM (inactive) | > 100 µM (inactive)

From ChEMBL document CHEMBL1201862, “PubChem BioAssay data set” (2004)
